Measured values from ChEMBL document CHEMBL2440076, “New triarylpyrazoles as broad-spectrum anticancer agents: design, synthesis, and biological evaluation” (Eur J Med Chem, 2013).

Legend:
Format in all cases: functional
[1] = system: M14; assay: Growth inhibition of human M14 cells assessed as cell growth at 5X10'-5 M after 48 hrs by sulforhodamine B assay; settings: M14, 48 h, read-out: Activity
[2] = system: SW-620; assay: Growth inhibition of human SW620 cells assessed as cell growth at 5X10'-5 M after 48 hrs by sulforhodamine B assay; settings: SW-620, 48 h, read-out: Activity
[3] = system: SR; assay: Growth inhibition of human SR cells assessed as cell growth at 5X10'-5 M after 48 hrs by sulforhodamine B assay; settings: read-out: Activity
[4] = system: MCF7; assay: Growth inhibition of human MCF7 cells assessed as cell growth at 5X10'-6 M after 48 hrs by sulforhodamine B assay; settings: MCF7, 48 h, read-out: Activity
[5] = system: PC-3; assay: Growth inhibition of human PC3 cells assessed as cell growth at 5X10'-6 M after 48 hrs by sulforhodamine B assay; settings: PC-3, 48 h, read-out: Activity
[6] = system: RXF 393; assay: Growth inhibition of human RXF393 cells assessed as cell growth at 5X10'-6 M after 48 hrs by sulforhodamine B assay; settings: RXF 393, 48 h, read-out: Activity
[7] = system: CAKI-1; assay: Growth inhibition of human CAKI-1 cells assessed as cell growth at 5X10'-6 M after 48 hrs by sulforhodamine B assay; settings: CAKI-1, 48 h, read-out: Activity
[8] = system: A498; assay: Growth inhibition of human A498 cells assessed as cell growth at 5X10'-6 M after 48 hrs by sulforhodamine B assay; settings: A498, 48 h, read-out: Activity
[9] = system: SK-OV-3; assay: Growth inhibition of human SKOV3 cells assessed as cell growth at 5X10'-6 M after 48 hrs by sulforhodamine B assay; settings: SK-OV-3, 48 h, read-out: Activity
[10] = system: SK-MEL-28; assay: Growth inhibition of human SK-MEL-28 cells assessed as cell growth at 5X10'-6 M after 48 hrs by sulforhodamine B assay; settings: SK-MEL-28, 48 h, read-out: Activity
[11] = system: HL-60(TB); assay: Growth inhibition of human HL-60(TB) cells assessed as cell growth at 5X10'-6 M after 48 hrs by sulforhodamine B assay; settings: HL-60, 48 h, read-out: Activity
[12] = system: CCRF-CEM; assay: Growth inhibition of human CCRF-CEM cells assessed as cell growth at 5X10'-6 M after 48 hrs by sulforhodamine B assay; settings: read-out: Activity
[13] = system: BT-549; assay: Growth inhibition of human BT549 cells assessed as cell growth at 5X10'-7 M after 48 hrs by sulforhodamine B assay; settings: BT-549, 48 h, read-out: Activity
[14] = system: OVCAR-3; assay: Growth inhibition of human OVCAR3 cells assessed as cell growth at 5X10'-7 M after 48 hrs by sulforhodamine B assay; settings: OVCAR-3, 48 h, read-out: Activity
[15] = system: LOX IMVI; assay: Growth inhibition of human LOXIMVI cells assessed as cell growth at 5X10'-7 M after 48 hrs by sulforhodamine B assay; settings: read-out: Activity
[16] = system: SNB-19; assay: Growth inhibition of human SNB19 cells assessed as cell growth at 5X10'-7 M after 48 hrs by sulforhodamine B assay; settings: SNB-19, 48 h, read-out: Activity
[17] = system: NCI-H460; assay: Growth inhibition of human NCI-H460 cells assessed as cell growth at 5X10'-7 M after 48 hrs by sulforhodamine B assay; settings: NCI-H460, 48 h, read-out: Activity
[18] = system: NCI-H226; assay: Growth inhibition of human NCI-H226 cells assessed as cell growth at 5X10'-7 M after 48 hrs by sulforhodamine B assay; settings: NCI-H226, 48 h, read-out: Activity
[19] = system: HL-60(TB); assay: Growth inhibition of human HL-60(TB) cells assessed as cell growth at 5X10'-7 M after 48 hrs by sulforhodamine B assay; settings: HL-60, 48 h, read-out: Activity
[20] = system: PC-3; assay: Growth inhibition of human PC3 cells assessed as cell growth at 5X10'-8 M after 48 hrs by sulforhodamine B assay; settings: PC-3, 48 h, read-out: Activity
[21] = system: OVCAR-8; assay: Growth inhibition of human OVCAR8 cells assessed as cell growth at 5X10'-8 M after 48 hrs by sulforhodamine B assay; settings: OVCAR-8, 48 h, read-out: Activity
[22] = system: SK-MEL-28; assay: Growth inhibition of human SK-MEL-28 cells assessed as cell growth at 5X10'-8 M after 48 hrs by sulforhodamine B assay; settings: SK-MEL-28, 48 h, read-out: Activity
[23] = system: Malme-3M; assay: Growth inhibition of human MALME-3M cells assessed as cell growth at 5X10'-8 M after 48 hrs by sulforhodamine B assay; settings: read-out: Activity
[24] = system: KM12; assay: Growth inhibition of human KM12 cells assessed as cell growth at 5X10'-8 M after 48 hrs by sulforhodamine B assay; settings: KM12, 48 h, read-out: Activity
[25] = system: BT-549; assay: Growth inhibition of human BT549 cells assessed as cell growth at 5X10'-5 M after 48 hrs by sulforhodamine B assay; settings: BT-549, 48 h, read-out: Activity
[26] = Growth inhibition of human Hs 578T cells assessed as cell growth at 5X10'-5 M after 48 hrs by sulforhodamine B assay; settings: read-out: Activity
[27] = system: MCF7; assay: Growth inhibition of human MCF7 cells assessed as cell growth at 5X10'-5 M after 48 hrs by sulforhodamine B assay; settings: MCF7, 48 h, read-out: Activity
[28] = system: A498; assay: Growth inhibition of human A498 cells assessed as cell growth at 5X10'-5 M after 48 hrs by sulforhodamine B assay; settings: A498, 48 h, read-out: Activity
[29] = Growth inhibition of human NCI-ADR-RES cells assessed as cell growth at 5X10'-5 M after 48 hrs by sulforhodamine B assay; settings: read-out: Activity
[30] = system: COLO 205; assay: Growth inhibition of human COLO205 cells assessed as cell growth at 5X10'-8 M after 48 hrs by sulforhodamine B assay; settings: COLO 205, 48 h, read-out: Activity
[31] = system: NCI-H522; assay: Growth inhibition of human NCI-H522 cells assessed as cell growth at 5X10'-8 M after 48 hrs by sulforhodamine B assay; settings: NCI-H522, 48 h, read-out: Activity
[32] = system: NCI-H226; assay: Growth inhibition of human NCI-H226 cells assessed as cell growth at 5X10'-8 M after 48 hrs by sulforhodamine B assay; settings: NCI-H226, 48 h, read-out: Activity
[33] = system: HL-60(TB); assay: Growth inhibition of human HL-60(TB) cells assessed as cell growth at 5X10'-8 M after 48 hrs by sulforhodamine B assay; settings: HL-60, 48 h, read-out: Activity
[34] = Growth inhibition of human Hs 578T cells assessed as cell growth at 5X10'-9 M after 48 hrs by sulforhodamine B assay; settings: read-out: Activity
[35] = system: RXF 393; assay: Growth inhibition of human RXF393 cells assessed as cell growth at 5X10'-9 M after 48 hrs by sulforhodamine B assay; settings: RXF 393, 48 h, read-out: Activity
[36] = system: ACHN; assay: Growth inhibition of human ACHN cells assessed as cell growth at 5X10'-9 M after 48 hrs by sulforhodamine B assay; settings: read-out: Activity
[37] = system: MDA-MB-435; assay: Growth inhibition of human MDA-MB-435 cells assessed as cell growth at 5X10'-9 M after 48 hrs by sulforhodamine B assay; settings: MDA-MB-435, 48 h, read-out: Activity
[38] = system: M14; assay: Growth inhibition of human M14 cells assessed as cell growth at 5X10'-9 M after 48 hrs by sulforhodamine B assay; settings: M14, 48 h, read-out: Activity

SMILES	growth at 50 µM [1]	growth at 50 µM [2]	growth at 50 µM [3]	growth at 5 µM [4]	growth at 5 µM [5]	growth at 5 µM [6]	growth at 5 µM [7]	growth at 5 µM [8]	growth at 5 µM [9]	growth at 5 µM [10]	growth at 5 µM [11]	growth at 5 µM [12]	growth at 0.5 µM [13]	growth at 0.5 µM [14]	growth at 0.5 µM [15]	growth at 0.5 µM [16]	growth at 0.5 µM [17]	growth at 0.5 µM [18]	growth at 0.5 µM [19]	growth at 0.05 µM [20]	also measured
COc1cc(-c2nn(-c3cccc(NC(=O)Nc4cc(C(F)(F)F)cc(C(F)(F)F)c4)c3)cc2-c2ccncc2)ccc1Cl	-28%	-65%	-5%	2%	-20%	-51%	-20%	-43%	-39%	-78%	8%	-17%	98%	45%	84%	61%	55%	83%	75%	90%	growth at 0.05 µM [21]: 97%; growth at 0.05 µM [22]: 97%; growth at 0.05 µM [23]: 104%; growth at 0.05 µM [24]: 107%; growth at 50 µM [25]: -57%; growth at 50 µM [26]: -10%; growth at 50 µM [27]: -5%; growth at 50 µM [28]: -89%; growth at 50 µM [29]: -16%; growth at 0.05 µM [30]: 102%; growth at 0.05 µM [31]: 103%; growth at 0.05 µM [32]: 90%; growth at 0.05 µM [33]: 98%; growth at 0.005 µM [34]: 96%; growth at 0.005 µM [35]: 98%; growth at 0.005 µM [36]: 104%; growth at 0.005 µM [37]: 98%; growth at 0.005 µM [38]: 105%
O=C(Nc1cccc(-n2cc(-c3ccncc3)c(-c3ccc(Cl)c(O)c3)n2)c1)Nc1cc(C(F)(F)F)cc(C(F)(F)F)c1	-86%	-75%	-8%	4%	-3%	-36%	-4%	-4%	-13%	-85%	3%	3%	109%	43%	76%	64%	45%	79%	93%	89%	growth at 0.05 µM [21]: 93%; growth at 0.05 µM [22]: 95%; growth at 0.05 µM [23]: 100%; growth at 0.05 µM [24]: 103%; growth at 50 µM [25]: -90%; growth at 50 µM [26]: -40%; growth at 50 µM [27]: -64%; growth at 50 µM [28]: -95%; growth at 50 µM [29]: -56%; growth at 0.05 µM [30]: 103%; growth at 0.05 µM [31]: 102%; growth at 0.05 µM [32]: 85%; growth at 0.05 µM [33]: 122%; growth at 0.005 µM [34]: 97%; growth at 0.005 µM [35]: 95%; growth at 0.005 µM [36]: 103%; growth at 0.005 µM [37]: 98%; growth at 0.005 µM [38]: 104%
